# Measurements: ChEMBL document CHEMBL1147756, “Synthesis and antiviral activity of 7-deazaneplanocin A against orthopoxviruses (vaccinia and cowpox virus)” (Bioorg Med Chem Lett, 2006)
# Key:
# Cowpox virus = experiment: Antiviral activity against Cowpox virus in HFF cells; type: functional, organism-based
# Vaccinia virus = experiment: Antiviral activity against Vaccinia virus in HFF cells; type: functional, organism-based; settings: Orthopoxvirus vaccinia
# HFF = experiment: Cytotoxicity in HFF cells; type: functional; settings: Homo sapiens
smiles,measurement,setting,value
Nc1ccn(C[C@@H](CO)OCP(=O)(O)O)c(=O)n1 [CIDOFOVIR],EC50,Cowpox virus,5 µM
same,EC50,Vaccinia virus,4.8 µM
Nc1ncnc2c1ccn2[C@@H]1C=C(CO)[C@@H](O)[C@H]1O [DEAZANEPLANOCIN A],EC50,Cowpox virus,1.2 µM
same,EC90,Cowpox virus,4.6 µM
same,CC50,HFF,> 300 µM
same,EC50,Vaccinia virus,3.4 µM
same,EC90,Vaccinia virus,21.5 µM
